In patent US20130261130A1, “NEUROTRYPSIN INHIBITORS” (priority 2010, published 2013):
Counter-ions that a name gives are not always drawn.

How the values were obtained:
[1] = Effect of compound on body weight in mice; assay type: in vivo, C57/BL6 mice; conditions: 25 mg/kg active ingredient, three intraperitoneal injections
Protocol: (§1) Adult (P50) C57/BL6 mice from Charles River were used for the experiments. All animal experiments are performed in accordance with international guidelines for proper conduct of animal experiment under jurisdiction of the Swiss law (Permit number ZH-18/2008). For every mouse in the experiment the well-being during the interventions is documented in a score sheet.
The mice are housed under optimal hygienic conditions (OHB) with controlled air-conditioning and lighting (temperature: 20-24° C., humidity: 55-65%, day/night cycle: 12 h/12 h, lights on 7 a.m.). Individually ventilated cages of type II, L (530 cm^2 floor space) with standard litter are used. A maximum of 6 mice is kept in each cage. Mice are fed with standard rodent chow (Extrudat, KLIBA NAFAG) ad libitum and have free access to drinking water. Animal colony is managed and maintained at BioSupport, Schlieren.
(§2) Example 119, mono-lysine salt, was prepared for the dosing as suspension in 20% DMSO, 80% PBS with a final concentration of 2.5 mg/ml active compound (corresponding to 3.13 mg/ml of the lysine salt). First, compound of Example 119, mono-lysine salt, was dissolved in DMSO at a concentration of 15.7 mg/ml. Then sterile PBS was added to get a final concentration of 3.13 mg/ml and the suspension was thoroughly vortexed. The suspension was kept at room temperature in the dark until used.
(§3) 5 adult mice were treated with 10 ml/kg of a 3.13 mg/ml suspension of Example 119, mono-lysine salt. This corresponds to a dose of 25 mg/kg active ingredient. As vehicle control 5 mice were treated with 10 ml/kg of 20% DMSO in PBS. Each mouse received three intraperitoneal injections. Between dose 1 and dose 2 there were 8 h, between dose 2 and dose 3 16 h. 5 h after the last injection the mice were euthanatized with CO2.
(§4) Before the first injection the mice were weighted and ˜100 μl of blood was collected from the lateral tail vein. Serum was prepared with centrifugation of blood samples in Microvette 500 Z-Gel tubes (10'000 g, 20° C., 5 min). […]

[2] = tested on: C-terminal agrin fragment (CAF); test: Analysis of serum CAF levels by western blotting; assay type: in vivo, C57/BL6 mice
Protocol: as §1, §2, §3
as §4, with “min). Supernatant was transferred to an Eppendorf reaction tube and centrifuged again (21'000 g, 20° C., 5 min). Supernatant was transferred to screw top reaction tubes and the serum was stored at −20° C. until analysis.” for “min).”
After staining for CAF the membrane was washed thoroughly and reused for a staining for endogenous mouse antibodies that served as loading control. […] After imaging with a Stella imaging system (Raytest) the intensity of the CAF bands was measured with AIDA picture analysis software (Raytest) and normalized to the loading levels determined from mouse antibody light chains. […]

human neurotrypsin = biological target: T1, human neurotrypsin (Homo sapiens, UniProt P56730); test: Determination of IC50 for human neurotrypsin; assay type: biochemical; conditions: human neurotrypsin; method of WO 2006/1103261; read-out: Neurotrypsin IC50
T1 sequence (P56730 21-875): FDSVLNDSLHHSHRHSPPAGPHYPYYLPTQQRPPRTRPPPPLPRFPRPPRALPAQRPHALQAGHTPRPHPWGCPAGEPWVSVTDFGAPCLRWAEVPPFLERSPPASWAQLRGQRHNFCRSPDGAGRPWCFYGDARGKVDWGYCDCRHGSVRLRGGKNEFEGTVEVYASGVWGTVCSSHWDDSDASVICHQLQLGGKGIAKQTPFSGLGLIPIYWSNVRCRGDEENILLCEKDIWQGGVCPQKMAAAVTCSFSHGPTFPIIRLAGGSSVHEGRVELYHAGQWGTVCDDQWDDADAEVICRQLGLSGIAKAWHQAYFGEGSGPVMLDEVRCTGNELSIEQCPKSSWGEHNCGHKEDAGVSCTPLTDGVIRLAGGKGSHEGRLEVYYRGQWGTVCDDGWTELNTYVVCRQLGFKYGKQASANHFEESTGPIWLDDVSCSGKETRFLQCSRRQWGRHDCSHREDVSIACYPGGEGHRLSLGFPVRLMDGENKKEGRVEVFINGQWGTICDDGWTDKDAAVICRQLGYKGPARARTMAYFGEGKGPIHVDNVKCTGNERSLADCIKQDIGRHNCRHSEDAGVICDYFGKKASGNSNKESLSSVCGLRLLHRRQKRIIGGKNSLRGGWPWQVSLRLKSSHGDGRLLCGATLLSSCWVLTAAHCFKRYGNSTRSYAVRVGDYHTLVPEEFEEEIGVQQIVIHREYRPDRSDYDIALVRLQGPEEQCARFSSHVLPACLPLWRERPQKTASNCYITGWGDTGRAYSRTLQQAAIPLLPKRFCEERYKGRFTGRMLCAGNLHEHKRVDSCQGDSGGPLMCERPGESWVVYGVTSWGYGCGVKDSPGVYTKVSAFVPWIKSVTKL
Protocol: Assessment of the potency of compounds of examples 1-311 in inhibiting the enzymatic activity of human neurotrypsin was performed according to the method described in patent application WO 2006/1103261

Molecule | IC50 (human neurotrypsin) | further results
O=C(Nc1ccc(Cl)cc1)c1ccc(NC(=O)c2ccc(-c3nc4cc(Cl)c(Cl)cc4[nH]3)cc2)c(C(=O)O)c1 [Example 119, mono-lysine salt] | – | increase in weight loss compared to the vehicle control ([1]; adult mice): does not produce any increase in weight loss compared to the vehicle control; Weight loss ([1]; adult mice, post-treatment/pre-treatment weight): < 10%; Average weight loss (% of T = 0 weigth) ([1]; mice, weighed before first injection and 5 h after last, n=5): 5.52 % of T = 0 weigth; CAF levels Average (AU) ([2]; pooled mouse serum, western blot, post-treatment, 25 mg/kg i.p. x3, normalized to loading control, KO background subtracted): 0.38 AU; CAF levels Average (% of vehicle) ([2]; pooled mouse serum, western blot, post-treatment, 25 mg/kg i.p. x3, normalized to the vehicle level): 56.15 % of vehicle; CAF levels ([2]; serum, pooled samples, mice, 25 mg/kg active ingredient, three intraperitoneal injections, 5 h after last injection, mean ± standard deviation): 56.2%±29.0 % of vehicle control
O=C(Nc1ccc(C(=O)O)c(NC(=O)c2ccc(-c3ccccc3)s2)c1)c1ccc(Cl)s1 [Example 275] | 3 µM | –
O=C(Nc1ccc(Cl)cc1)Nc1ccc(C(=O)O)c(NC(=O)c2sc3ccccc3c2Cl)c1 [Example 276] | 6.3 µM | –
O=C(Nc1cc(NC(=O)c2sc3ccccc3c2Cl)ccc1C(=O)O)c1ccc(Cl)cc1 [Example 277] | 3.5 µM | –
O=C(O)c1ccc(NS(=O)(=O)c2ccc(Cl)cc2)cc1NC(=O)c1sc2ccccc2c1Cl [Example 278] | 19.4 µM | –
O=C(O)c1ccc(NC(=O)N2CCC(c3ccccc3)CC2)cc1NC(=O)c1sc2ccccc2c1Cl [Example 279] | 5.4 µM | –
O=C(O)c1ccc(NCc2ccc(Cl)cc2)cc1NC(=O)c1sc2ccccc2c1Cl [Example 280, 2-(3-Chlorobenzo[b]thiophene-2-carboxamido)-4-(4-chlorobenzylamino)-benzoic acid] | 5 µM | –
O=C(O)c1ccc(N2CC(c3ccc(Cl)cc3)CC2=O)cc1NC(=O)c1sc2ccccc2c1Cl (stereo not shown) [Example 282] | 11.3 µM | –
O=C(Nc1cc(N2CC(c3ccc(Cl)cc3)CC2=O)ccc1C(=O)O)c1ccc(-c2ccc(Cl)cc2)s1 (stereo not shown) [Example 283] | 3.4 µM | –
O=C(O)c1ccc(N2CC(c3ccc(Cl)cc3)CCC2=O)cc1NC(=O)c1sc2ccccc2c1Cl (stereo not shown) [Example 286] | 10.4 µM | –
O=C(O)c1cc(N2CC(c3ccc(Cl)cc3)CC2=O)ccc1NC(=O)c1sc2ccccc2c1Cl (stereo not shown) [Example 287] | 4.3 µM | –
O=C(O)c1ccc(Nc2ccc(Cl)cc2)cc1NC(=O)c1sc2ccccc2c1Cl [Example 288, 2-(3-Chlorobenzo[b]thiophene-2-carboxamido)-4-(4-chlorophenyl-amino)benzoic acid] | 5.1 µM | –
CC(Nc1ccc(C(=O)O)c(NC(=O)c2sc3ccccc3c2Cl)c1)c1ccc(Cl)cc1 (stereo not shown) [Example 290] | 4.1 µM | –
O=C(O)c1ccc(NC2CCCc3ccccc32)cc1NC(=O)c1sc2ccccc2c1Cl (stereo not shown) [Example 291] | 4 µM | –
N-(5-(5-Chloro-1,3-thiazol-2-ylcarbamoyl)-2-(2H-tetrazol-5-yl)phenyl)-5-phenyl-thiophene-2-carboxamide [Example 228] | 6.6 µM | –

More lines, main results first:

IC50 (human neurotrypsin) | Molecule | further results
8.7 µM | O=C(Nc1ccc(Sc2ccc(Cl)cc2)cc1C(=O)O)c1ccc(-c2ccc(Cl)cc2)s1 [Example 293] | –
8.7 µM | O=C(O)c1ccc(CN2CC(c3ccc(Cl)cc3)OC2=O)cc1NC(=O)c1sc2ccccc2c1Cl (stereo not shown) [Example 301] | –
4.4 µM | O=C(O)COc1cc(C(=O)O)c(NC(=O)c2ccc(-c3nc4cc(Cl)c(Cl)cc4n3CC(=O)O)cc2)cc1C(=O)Nc1ccc(Cl)cc1 [Example 302, 5-(Carboxymethoxy)-2-(4-(1-(carboxymethyl)-5,6-dichloro-1H-benzo[d]imidazol-2-yl)benzamido)-4-(4-chlorophenylcarbamoyl)benzoic acid] | –
5.5 µM | O=C(Nc1ccc(Cl)cc1)c1cc(NC(=O)c2sc3ccccc3c2Cl)c(C(=O)O)cc1O [Example 303] | –
2.5 µM | O=C(O)COc1cc(C(=O)O)c(NC(=O)c2sc3ccccc3c2Cl)cc1C(=O)Nc1ccc(Cl)cc1 [Example 304] | –
1.2 µM | COC(=O)c1cc(OCC(=O)O)c(C(=O)Nc2ccc(Cl)cc2)cc1NC(=O)c1ccc(-c2nc3cc(Cl)c(Cl)cc3n2C)cc1 [Example 305] | –
0.5 µM | Cn1c(-c2ccc(C(=O)Nc3cc(C(=O)Nc4ccc(Cl)cc4)c(OCC(=O)O)cc3C(=O)O)cc2)nc2cc(Cl)c(Cl)cc21 [Example 306] | –
0.5 µM | O=C(COc1ccc(NC(=O)c2ccc(-c3nc4cc(Cl)c(Cl)cc4[nH]3)cc2)c(C(=O)O)c1)Nc1ccc(Cl)cc1 [Example 311, 5-(4-Chlorophenylcarbamoylmethoxy)-2-(4-(5,6-dichloro-1H-benzo[d]imidazol-2-yl)benzamido)benzoic acid] | –
